Experimental data reported in patent US8927484B2, “Antiviral compounds” (Gilead Sciences, Inc., priority 2009, dated 2015).

Target: T1, HCV NS3 protease (Hepatitis C virus genotype 1a, UniProt P27958)
T1 construct: 2-10 nM of purified NS3 protease domains were pre-incubated
Test: HCV NS3 Protease IC50 Determination (FRET)
Assay type: biochemical
Conditions: result in words

T1 sequence (P27958 1027-1208): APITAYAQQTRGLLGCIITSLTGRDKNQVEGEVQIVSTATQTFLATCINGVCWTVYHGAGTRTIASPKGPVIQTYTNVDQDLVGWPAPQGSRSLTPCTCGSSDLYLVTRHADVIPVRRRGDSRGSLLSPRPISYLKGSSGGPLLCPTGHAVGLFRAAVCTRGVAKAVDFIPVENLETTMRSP

| Structure (SMILES) | activity in the enzymatic assay |
| --- | --- |
| CC[C@@H]1C[C@]1(NC(=O)[C@@H]1C[C@@H](OC(=O)N2Cc3cccc(F)c3C2)[C@H]2CCCC(=O)N21)C(=O)NS(=O)(=O)C1CC1 [Example 90] | fails to demonstrate optimal activity |

Tested on: Replicon cells harboring H77 (genotype 1a) or Con1 (genotype 1b) HCV RNA and Renilla luciferase reporter
Test: High Throughput Replicon Assay (HTBS)
Assay type: cell-based
Conditions: 72 h, read-out: INH @1 μM (Mean)
Description: High Throughput Replicon Assay (HTBS)
Replicon cells harboring H77 (genotype 1a) or Con1 (genotype 1b) HCV RNA and Renilla luciferase reporter were seeded in 384-well black plates at a density of 1.6×10^3 cells per well in 90 μl of DMEM culture medium, excluding G-418. Compounds were serially diluted in 100% DMSO and added to cells at a 1:225 dilution, achieving a final concentration of 0.44% DMSO in a total volume of 90 μL with a Biotek uFlow Workstation. Cell plates were incubated at 37° C. with 5% CO2 for 3 days, after which culture media were removed and cells were assayed for luciferase activity as a marker for replication level. Luciferase expression was measured using Dual-Glo luciferase assay reagents (Promega, Madison, Wis.). Briefly, 20 μL of Dual-Glo luciferase buffer was added to lyse the cells for 10 min and subsequently 20 μL of a diluted Dual-Glo Stop & Glo substrate (1:100) was added to each well. Luminescence signal was measured on a Perkin Elmer Envision Plate Reader after incubation for 10 minute. Luciferase levels were converted into percentages relative to the untreated controls (defined as 100%) and data were fit to the logistic dose response equation y=a/(1+(x/b)^c) using XLFit4 software (IDBS, Emeryville, Calif.). EC50 values were calculated from the resulting equations.

| Structure (SMILES) | inhibition at 1 µM |
| --- | --- |
| C=C[C@@H]1C[C@]1(NC(=O)[C@@H]1C[C@@H](Oc2cc(-c3nc(C(C)C)cs3)nc3c(Cl)c(OCCN4CCOCC4)ccc23)[C@H]2CN(C(=O)OC(C)(C)C)[C@H]([C@@H](C)OC)C(=O)N21)C(=O)NS(=O)(=O)C1CC1 [Example 54] | > 45% |
| C=C[C@@H]1C[C@]1(NC(=O)[C@@H]1C[C@@H](Oc2cc(-c3nc(C(C)C)cs3)nc3c(Cl)c(OCCN4CCOCC4)ccc23)[C@H]2CN(C(=O)OC(C)(C)C)[C@H]([C@H](C)OC)C(=O)N21)C(=O)NS(=O)(=O)C1CC1 [Example 55] | > 95% |
| C=C[C@@H]1C[C@]1(NC(=O)[C@@H]1C[C@@H](Oc2cc(-c3nc(C(C)C)cs3)nc3c(C)c(OC)ccc23)[C@H]2CN(C(=O)OC(C)(C)C)[C@H](C(C)C)C(=O)N21)C(=O)NS(=O)(=O)C1CC1 [Example 58] | > 85% |
| CC[C@@H]1C[C@]1(NC(=O)[C@@H]1C[C@@H](Oc2cc(-c3nc(C(C)C)cs3)nc3c(C)c(OC)ccc23)[C@H]2CN(C(=O)OC(C)(C)C)[C@H](C(C)C)C(=O)N21)C(=O)NS(=O)(=O)C1CC1 [Example 59] | > 45% |
| C=C[C@@H]1C[C@]1(NC(=O)[C@@H]1C[C@@H](Oc2cc(-c3nc(C(C)C)cs3)nc3c(C)c(OC)ccc23)[C@H]2CN(C)[C@H](C(C)C)C(=O)N21)C(=O)NS(=O)(=O)C1CC1 [Example 62] | > 99% |
| CC[C@@H]1C[C@]1(NC(=O)[C@@H]1C[C@@H](Oc2cc(-c3nc(C(C)C)cs3)nc3c(C)c(OC)ccc23)[C@H]2CN(C)[C@H](C(C)C)C(=O)N21)C(=O)NS(=O)(=O)C1CC1 [Example 63] | > 40% |
| C=C[C@@H]1C[C@]1(NC(=O)[C@@H]1C[C@@H](Oc2cc(-c3nc(C(C)C)cs3)nc3c(Cl)c(OCCN4CCOCC4)ccc23)[C@H]2CN(C(=O)OC(C)(C)C)[C@H](C3CCOCC3)C(=O)N21)C(=O)NS(=O)(=O)C1CC1 [Example 73] | > 90% |
| CC[C@@H]1C[C@]1(NC(=O)[C@@H]1C[C@@H](Oc2cc(-c3nc(C(C)C)cs3)nc3c(Cl)c(OCCN4CCOCC4)ccc23)[C@H]2CN(C(=O)OC(C)(C)C)[C@H](C3CCOCC3)C(=O)N21)C(=O)NS(=O)(=O)C1CC1 [Example 74] | > 90% |
| COc1ccc2c(O[C@@H]3C[C@H]4C(=O)N[C@]5(C(=O)NS(=O)(=O)C6CC6)C[C@H]5/C=C\CCCCC[C@@H]5C(=O)N4[C@@H]3CN5C(=O)OC(C)(C)C)cc(-c3cccc(C(C)C)n3)nc2c1Cl [Example 94] | > 99% |

Same assay, conditions: result in words

| Structure (SMILES) | activity in the cellular assay |
| --- | --- |
| CC[C@@H]1C[C@]1(NC(=O)[C@@H]1C[C@@H](OC(=O)N2Cc3cccc(F)c3C2)[C@H]2CCCC(=O)N21)C(=O)NS(=O)(=O)C1CC1 [Example 90] | fails to demonstrate optimal activity |
